# According to article PMC6930638, “The Masked Polar Group Incorporation (MPGI) Strategy in Drug Design: Effects of Nitrogen Substitutions on Combretastatin and Isocombretastatin Tubulin Inhibitors” (Molecules, 2019):
# Like-named read-outs stand apart in the source and are kept apart here.
# Columns and labels:
# [1] = tested on: HeLa cervix epithelioid carcinoma; assay: MTT cell antiproliferative assay, HeLa; assay type: cell-based; conditions: Homo sapiens, 72 h
# Method: (§1) The in vitro antiproliferative activity of the synthesized compounds was evaluated by a colorimetric reaction, using the MTT reagent. They were tested against three different human tumor cell lines: HeLa cervix epithelioid carcinoma, HT-29 colon adenocarcinoma, and MCF-7 breast adenocarcinoma. […] Moving the alkylamino substituent from a para to a meta position with respect to the bridge results in potency reduction, except for the phenstatin analogue 1f. However, the introduction of a nitrogen atom to form 2-dimethylaminopyridine derivatives entails a loss of activity, both for phenstatin analogues (1b, 2b), while for isocombretastatins, it only involves a 2–3 times potency decrease (3b). For combretastatins, it implies an improvement in the cytotoxicity values down to tenths of nanomolar (8b). […] On the other hand, the best 2-dimethylaminopyridine was combretastatin 8b. All ammonium salts derivatives were not cytotoxic at micromolar concentrations.
# (§2) HeLa (human cervical carcinoma) and MCF-7 (human breast carcinoma) cell lines were cultured in Dulbecco’s Modified Eagles Medium (DMEM) supplemented with 2 mM L-glutamine (Lonza-Cambrex, Karlskoga, Sweden), 10% (v/v) heat inactivated fetal bovine serum (HIFBS) (Lonza-Cambrex) and 100 μg/mL streptomycin-100 IU/mL penicillin (Lonza-Cambrex) at 37 °C in humidified 95% air and 5% CO2. HT-29 (human colon carcinoma) cells were cultured at 37 °C in complete RPMI 1640 medium containing 2 mM L-glutamine, 10% (v/v) HIFBS and 100 μg/mL streptomycin-100 IU/mL penicillin in humidified 95% air and 5% CO2 atmosphere.
# (§3) The effect of the different compounds on the proliferation of human cell lines was determined by using the MTT (3-[4,5-dimethylthiazol-2-yl]-2,5-diphenyltetrazolium bromide) reagent (MTT Thiazolyl Blue Tetrazolium Bromide, Sigma-Aldrich, St. Louis, MO, USA) dissolved in PBS 5 mg/mL. Cell viability was evaluated seeding 100 µL of cells in exponential growth phase with appropriate cell line concentration (1.5 × 10^4 HeLa and MCF-7 cells/mL and 3 × 10^4 HT-29 cells/mL) in complete medium in 96-well plates at 37 °C and 5% CO2. After 24 h incubation to allow cells to attach to the plates the ligands were added at different concentrations from 10^−5 to 10^−9 M. The effect on the proliferation was evaluated 72 h post-treatment by adding the MTT reagent (10 µL/well) to a final concentration of 0.5 mg/mL and the plate was further incubated for another 3 h. After this period, the supernatant was removed, the MTT violet crystals formed on the bottom of each well were dissolved in DMSO (100 µL/well) and subsequently, the absorbance of the color complex was read at 570 nm using a multi-well plate reader. Compounds were dissolved in dimethyl sulfoxide (DMSO) and the final solvent concentrations never exceeded 0.5% (v/v). The control wells included treated cells with 0.5% (v/v) DMSO and the positive control. Measurements were performed in triplicate, and each experiment was repeated three times. […] Nonlinear curves fitting the experimental data were carried out for each compound.
# [2] = tested on: MCF-7 breast adenocarcinoma; assay: MTT cell antiproliferative assay, MCF-7; assay type: cell-based; conditions: Homo sapiens, MCF7, 72 h
# Method: as §1, §2, §3
# [3] = tested on: Bovine brain microtubule protein (MTP); assay: Tubulin polymerization inhibition assay (turbidimetry); assay type: biochemical; conditions: 1.5 mg/mL MTP; IC50 calculated only if more than 50% inhibition at 20 µM; read-out: TPI IC50
# Method: Bovine brain microtubule protein (MTP) was isolated as previously described. Briefly, it was purified according to the modified Shelanski method by two cycles of temperature-dependent assembly/disassembly.
# Tubulin polymerization was monitored using a Helios α spectrophotometer by measuring the increase in turbidity at 450 nm, caused by a shift from 4 °C to 37 °C, which allows the in vitro MTP self-disassembly and assembly respectively. […] Firstly, ligands at 20 µM concentration, were incubated with 1.5 mg/mL MTP at 20 °C for 30 min and subsequently cooled on ice for 10 min. Then, the experiment starts at 4 °C to establish the initial baseline. The assembly process was initiated by shifting of the temperature to 37 °C and the turbidity produced can be measured by an absorbance increase. After reaching a stable plateau, the temperature was switched back to 4 °C to return to the initial absorption values. The difference in amplitude between the stable plateau and the initial baseline of the curves was taken as the degree of tubulin polymerization for each experiment. […] All the measurements were carried out in at least two independent experiments using MTP from different isolation.
# [4] = tested on: HeLa, HT-29 and MCF-7 human tumor cell lines; assay: Antiproliferative activity over the three human tumor cell lines (MTT); assay type: cell-based; conditions: range over the cell lines, Table S1, read-out: Cytotoxicity range (range of antiproliferative IC50 values)
# Method: as §1
# The antiproliferative activity of the compounds against three human tumor cell lines of different origins (i.e., HeLa cervix epithelioid carcinoma, HT-29 colon adenocarcinoma and MCF-7 breast adenocarcinoma) was evaluated by the MTT method. […] This high success rate is the result of a combination of favorable scaffolds and substituents, and it is similar to those of previous reports on related series. […] We have previously observed the same trend for related compounds acting at the colchicine site of tubulin [10, 23]. For this pyridine series, we observed a different potency trend when we compare the 4-amino-3-pyridine and the 3-amino-4-pyridine derivatives. […] This different behavior is probably a reflection of their different shape, combined with the different geometries imposed by different bridges. We have previously shown that the potency ordering isocombretastatins similar to oximes higher than benzophenones could be explained by the higher conjugation of the ketones with the aromatic rings, which imposes a more planar disposition than those required for high affinity colchicine site binding. For the 3-amino-4-pyridine series, more planar structures are required in order to avoid the bumping of the amino substituents with tubulin out the plane of the aromatic ring, an effect which we have previously shown to impact the potency of 3-substituted indolecombretastatins and dimethylaminophenyl phenstatins. This different geometrical disposition of the amino substituents, and the different adaptability of their corresponding pockets in the two series, can also account for the preference of bulkier substituents at position 3, such as the pyrrolidine rather than the smaller dimethylamino. […] The opposite is observed for the 4-dimethylaminophenyl phenstatins 1a and 1b. […] The remarkable levels of solubility achieved for the quaternary ammonium salts came unfortunately at the expenses of biological activity.
# The effect of the different compounds on the proliferation of human cell lines was determined by using the MTT (3-[4,5-dimethylthiazol-2-yl]-2,5-diphenyltetrazolium bromide) reagent (MTT Thiazolyl Blue Tetrazolium Bromide, Sigma-Aldrich, St. Louis, MO, USA) dissolved in PBS 5 mg/mL. Cell viability was evaluated seeding 100 µL of cells in exponential growth phase with appropriate cell line concentration (1.5 × 10^4 HeLa and MCF-7 cells/mL and 3 × 10^4 HT-29 cells/mL) in complete medium in 96-well plates at 37 °C and 5% CO2. After 24 h incubation to allow cells to attach to the plates the ligands were added at different concentrations from 10^−5 to 10^−9 M. The effect on the proliferation was evaluated 72 h post-treatment by adding the MTT reagent (10 µL/well) to a final concentration of 0.5 mg/mL and the plate was further incubated for another 3 h. […]
Compound,IC50 [1] [nM],IC50 [2] [nM],IC50 [3] [nM],IC50 ([4]; Homo sapiens) [nM],IC50 [4] [nM],IC50 ([4]; heading: Cytotoxicity range) [nM]
"COc1cc(C(=NO)c2ccc([N+](C)(C)C)cc2)cc(OC)c1OC [Compound Z-6a, 4-((Hydroxyimino)(3,4,5-trimethoxyphenyl)methyl)-N,N,N-trimethylbenzenaminium iodide]",–,–,–,–,> 1000,–
"COc1ccc(C(=NO)c2ccc(N(C)C)cc2)c(OC)c1OC [Compound E-2d, (4-(Dimethylamino)phenyl)(2,3,4-trimethoxyphenyl)methanone oxime]",–,–,–,277 to 677,–,–
"COc1cc(C(=NO)c2ccc([N+](C)(C)C)cc2)cc(OC)c1OC [Compound E-6a, 4-((Hydroxyimino)(3,4,5-trimethoxyphenyl)methyl)-N,N,N-trimethylbenzenaminium iodide]",–,–,–,> 1000,–,–
"COc1cc(C(=NO)c2ccc(N3CCCC3)nc2)cc(OC)c1OC [Compound Z-2c, (6-(Pyrrolidin-1-yl)pyridin-3-yl)(3,4,5-trimethoxyphenyl)methanone oxime]",–,–,–,–,–,> 1000
"COc1cc(C(=NO)c2ccc(N3CCCC3)nc2)cc(OC)c1OC [Compound E-2c, (6-(Pyrrolidin-1-yl)pyridin-3-yl)(3,4,5-trimethoxyphenyl)methanone oxime]",–,–,–,–,> 1000,–
"COc1cc(C(=NO)c2cccc(N(C)C)c2)cc(OC)c1OC [Compound Z-2f, (3-(Dimethylamino)phenyl)(3,4,5-trimethoxyphenyl)methanone oxime]",–,–,–,–,> 1000,–
"COc1ccc(OC)c(C(=O)c2ccc(N(C)C)cc2)c1 [Compound 1e, (2,5-dimethoxyphenyl)(4-(dimethylamino)phenyl)methanone]",> 1000,> 1000,> 20000,> 1000,–,–
"COc1cc(C(=NO)c2ccnc(N(C)C)c2)cc(OC)c1OC [Compound E-2g, (2-(Dimethylamino)pyridin-4-yl)(3,4,5-trimethoxyphenyl)methanone oxime]",–,–,–,407 to 3330,–,–
"COc1cc(C(=NO)c2cccc(N(C)C)c2)cc(OC)c1OC [Compound E-2f, (3-(Dimethylamino)phenyl)(3,4,5-trimethoxyphenyl)methanone oxime]",–,–,–,> 1000,–,–
"C=C(c1ccc(N(C)C)cc1)c1cc(OC)ccc1OC [Compound 3e, 4-(1-(2,5-Dimethoxyphenyl)vinyl)-N,N-dimethylaniline]",> 1000,> 1000,> 20000,> 1000,–,–
"COc1cc(C(=NO)c2ccnc(N(C)C)c2)cc(OC)c1OC [Compound Z-2g, (2-(Dimethylamino)pyridin-4-yl)(3,4,5-trimethoxyphenyl)methanone oxime]",–,–,–,–,407 to 3330,–
"COc1ccc(OC)c(C(C)c2ccc(N(C)C)cc2)c1 (stereo not drawn) [Compound 4e, 4-(1-(2,5-Dimethoxyphenyl)ethyl)-N,N-dimethylaniline]",> 1000,> 1000,> 20000,> 1000,–,–
"COc1ccc(OC)c(C(=NO)c2ccc(N(C)C)cc2)c1 [Compound E-2e, (2,5-Dimethoxyphenyl)(4-(dimethylamino)phenyl)methanone oxime]",–,–,–,> 1000,–,–
"COc1ccc(OC)c(C(=NO)c2ccc(N(C)C)cc2)c1 [Compound Z-2e, (2,5-Dimethoxyphenyl)(4-(dimethylamino)phenyl)methanone oxime]",–,–,–,–,> 1000,–

# The next lines start with results.
IC50 [1] [nM],IC50 [2] [nM],IC50 [3] [nM],Compound,IC50 ([4]; Homo sapiens) [nM],IC50 [4] [nM],IC50 ([4]; heading: Cytotoxicity range) [nM]
> 1000,> 1000,> 20000,"COc1ccc(C(C)c2ccc(N(C)C)cc2)c(OC)c1OC (stereo not drawn) [Compound 4d, N,N-Dimethyl-4-(1-(2,3,4-trimethoxyphenyl)ethyl)aniline]",> 1000,–,–
> 1000,> 1000,> 20000,"COc1cc(C=Cc2ccc(N3CCCC3)nc2)cc(OC)c1OC [Compound 8c, 2-(Pyrrolidin-1-yl)-5-(3,4,5-trimethoxystyryl)pyridine]",> 1000,–,–
> 1000,> 1000,> 20000,"COc1cc(C(C)c2cccc(N(C)C)c2)cc(OC)c1OC (stereo not drawn) [Compound 4f, N,N-Dimethyl-3-(1-(3,4,5-trimethoxyphenyl)ethyl)aniline]",> 1000,–,–
> 1000,> 1000,–,"COc1cc(C=Cc2ccc([N+]3(C)CCCC3)cc2)cc(OC)c1OC [Compound 9i, 1-Methyl-1-(4-(3,4,5-trimethoxystyryl)phenyl)pyrrolidin-1-ium iodide]",–,–,–
> 1000,> 1000,> 20000,"COc1cc(C=Cc2ccc([N+](C)(C)C)cc2)cc(OC)c1OC [Compound 9a, N,N,N-trimethyl-4-(3,4,5-trimethoxystyryl)benzenaminium iodide]",> 1000,–,–
> 1000,> 1000,> 20000,"COc1cc(C(=NO)c2ccc(N3CCCC3)nc2)cc(OC)c1OC [Compound 2c, (6-(Pyrrolidin-1-yl)pyridin-3-yl)(3,4,5-trimethoxyphenyl)methanone oxime]",–,–,–
> 1000,> 1000,> 20000,"COc1cc(C(=O)c2ccc([N+](C)(C)C)cc2)cc(OC)c1OC [Compound 5a, N,N,N-Trimethyl-4-(3,4,5-trimethoxybenzoyl)benzenaminiumiodide]",> 1000,–,–
> 1000,> 1000,> 20000,"COc1ccc(OC)c(C(=NO)c2ccc(N(C)C)cc2)c1 [Compound 2e, (2,5-Dimethoxyphenyl)(4-(dimethylamino)phenyl)methanone oxime]",–,–,–
